Columns and labels:
Test in all cases: relative viability (nuclei count vs DMSO), 5 days (fraction); higher = more cells survive
Motesanib + Tozasertib = compound: CC1(C)CNc2cc(NC(=O)c3cccnc3NCc3ccncc3)ccc21 [Motesanib] + Cc1cc(Nc2cc(N3CCN(C)CC3)nc(Sc3ccc(NC(=O)C4CC4)cc3)n2)n[nH]1 [Tozasertib] (partner 0.1 µM)
Outline: (§1)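 Lung cancer cell lines in 1536-well plates got either a single drug or a fixed anchor-drug dose together with five library-drug doses (not always all listed) in √10 steps, by pin tool, on the day after seeding. Nuclei were counted after 5 days, and relative viability is the treated-to-vehicle ratio of nuclei counts. Values are medians of duplicate plates.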

Motesanib + Bortezomib = compound: CC1(C)CNc2cc(NC(=O)c3cccnc3NCc3ccncc3)ccc21 [Motesanib] + CC(C)C[C@H](NC(=O)[C@H](Cc1ccccc1)NC(=O)c1cnccn1)B(O)O [Bortezomib] (partner 0.002 µM)
Outline: as §1

Motesanib + Lapatinib = compound: CC1(C)CNc2cc(NC(=O)c3cccnc3NCc3ccncc3)ccc21 [Motesanib] + CS(=O)(=O)CCNCc1ccc(-c2ccc3ncnc(Nc4ccc(OCc5cccc(F)c5)c(Cl)c4)c3c2)o1 [Lapatinib] (partner 2 µM)
Outline: as §1

Motesanib + Olaparib = compound: CC1(C)CNc2cc(NC(=O)c3cccnc3NCc3ccncc3)ccc21 [Motesanib] + O=C(c1cc(Cc2n[nH]c(=O)c3ccccc23)ccc1F)N1CCN(C(=O)C2CC2)CC1 [Olaparib] (partner 8 µM)
Outline: as §1

Cell Line | relative viability (Motesanib + Tozasertib; first compound 0.01 µM) | relative viability (Motesanib + Tozasertib; first compound 0.03162 µM) | relative viability (Motesanib + Tozasertib; first compound 0.1 µM) | relative viability (Motesanib + Tozasertib; first compound 0.3162 µM) | relative viability (Motesanib + Tozasertib; first compound 1 µM) | relative viability (Motesanib + Bortezomib; first compound 0.01 µM) | relative viability (Motesanib + Bortezomib; first compound 0.03162 µM) | relative viability (Motesanib + Bortezomib; first compound 0.1 µM) | relative viability (Motesanib + Bortezomib; first compound 0.3162 µM) | relative viability (Motesanib + Bortezomib; first compound 1 µM) | relative viability (Motesanib + Lapatinib; first compound 0.01 µM) | relative viability (Motesanib + Lapatinib; first compound 0.03162 µM) | relative viability (Motesanib + Lapatinib; first compound 0.1 µM) | relative viability (Motesanib + Lapatinib; first compound 0.3162 µM) | relative viability (Motesanib + Lapatinib; first compound 1 µM) | relative viability (Motesanib + Olaparib; first compound 0.01 µM) | relative viability (Motesanib + Olaparib; first compound 0.03162 µM) | relative viability (Motesanib + Olaparib; first compound 0.1 µM) | relative viability (Motesanib + Olaparib; first compound 0.3162 µM) | relative viability (Motesanib + Olaparib; first compound 1 µM)
NCI-H1975 | 0.771 | 0.65 | 0.773 | 0.711 | 0.648 | 0.378 | 0.406 | 0.326 | 0.391 | 0.369 | 0.873 | 0.815 | 0.89 | 0.907 | 0.993 | 0.756 | 0.667 | 0.761 | 0.682 | 0.781
NCI-H1651 | 0.67 | 0.655 | 0.754 | 0.732 | 0.797 | 0.914 | 0.883 | 0.932 | 0.873 | 0.929 | 0.704 | 0.706 | 0.699 | 0.921 | 0.786 | 0.176 | 0.192 | 0.213 | 0.202 | 0.201
LCLC-97TM1 | 0.2 | 0.178 | 0.257 | 0.279 | 0.17 | 0.497 | 0.897 | 0.541 | 0.617 | 0.501 | 1.04 | 0.96 | 0.688 | 1.09 | 0.967 | 0.373 | 0.414 | 0.501 | 0.476 | 0.287
NCI-H727 | 0.603 | 0.574 | 0.638 | 0.645 | 0.577 | 0.735 | 0.926 | 0.883 | 0.919 | 0.818 | 0.821 | 0.902 | 0.858 | 1.13 | 0.787 | 0.937 | 0.614 | 0.761 | 0.779 | 0.6
NCI-H1355 | 0.556 | 0.414 | 0.639 | 0.59 | 0.448 | 1.2 | 1.33 | 1.22 | 1.35 | 1.18 | 1.07 | 1.01 | 1.04 | 1.09 | 0.962 | 0.726 | 0.771 | 0.773 | 0.747 | 0.707
HOP-62 | 0.369 | 0.306 | 0.412 | 0.388 | 0.395 | 0.862 | 0.791 | 0.735 | 0.802 | 0.907 | 0.968 | 0.97 | 0.957 | 1.33 | 1.09 | 0.47 | 0.38 | 0.389 | 0.564 | 0.616
NCI-H2085 | 0.852 | 0.749 | 0.886 | 0.818 | 0.797 | 1.14 | 1.12 | 0.977 | 1.09 | 1.14 | 0.77 | 0.779 | 0.798 | 0.772 | 0.779 | 0.756 | 0.777 | 0.764 | 0.745 | 0.843

Source: the supplement of paper PMC10307832
